From US9095616B2, “Caged platinum nanoclusters for anticancer chemotherapeutics” (priority 2013, dated 2015)

Key:
MDA-MB-231 = test: MTT cytotoxicity; format: cell-based, human; conditions: MDA-MB-231, 3 d
Description: Cells of the MDA-MB-231 line (Bioresource Collection and Research Center, Taiwan) were cultured in RPMI 1640 medium supplemented with 10% fetal bovine serum under 5% CO2 atmosphere at 37° C. Twenty-four-well cell culture plates were inoculated with 1×10^5 cells/well and kept at 37° C. for 24 h. The culture medium was changed in the presence of various concentrations of different treatments ([…] alone, carboplatin, cisplatin, and CPN) in culture medium (three replicates). The tests were performed for 3 d without changing the medium. After the overlaying cell-culture medium was removed, the cells were incubated with 3-(4,5-dimethylthiazol-2-yl)-2,5-diphenyltetrazolium bromide (MTT, Sigma, Mo. USA) at 37° C. for 1 h. After treatment, the fomazan product from MTT was dissolved in DMSO and quantified using a conventional ELISA reader at 570 nm. For calibration, a blank test was performed in a 24-well plate under the same conditions.

MDA-MB-231 cell line = test: ROS assay using CM-H2DCFDA; format: cell-based, human; conditions: 3 h
Description: MDA-MB-231 cell line was cultured in RPMI 1640 medium (media were supplemented with 10% fetal bovine serum) under 5% CO2 atmosphere at 37° C. The cells were inoculated with 1×10^5 cells per well in a 6-well cell-culture plate and cultivated at 37° C. for 24 h. Then, the culture medium was changed with the presence of various treatments, including […] alone, the CPN, cisplatin, and 0.03% H2O2 in the culture medium. The tests were performed for 3 h without changing the medium. After removal of the supernatant of cell culture medium, the cells were isolated for ROS assay using CM-H2DCFDA from INVITROGENTM.

[1] = Maximal tolerated dose (Table 1); format: in vivo; conditions: IV injection
Description: The therapeutic efficacy of CPN using subcutaneous breast cancer xenograft in mice was evaluated by intratumoral (IT) injection. The maximal tolerated dose (MTD) of various drugs, such as CPN and cisplatin, was described in Table 1. […] Thus, the programmed death pathway of CPN-treated cells might be similar to that of cisplatin-treated cells. We verified whether the CPN could be injected into blood vessels to exert tumor-inside activation for anticancer chemotherapeutics. Thus, the CPN was extra coated with a cleavable PEG layer to prevent protein adhesions after intravenous (i.v.) injection to form a double-caged PN (DCPN). […] To render the DCPN with a targeting function, an iRGD tumor-penetrating peptide was co-administered with the DCPN into subcutaneous xenograft nude mice of breast cancer by IV administration. The tumor size in each mouse was grown to about 150 mm^3 to facilitate DCPN delivery. Additionally, the DCPN and one of the control groups (G2NH2 coated with a PEG corona) were pre-attached with as NIR dye, cy5.5, for real-time tracking alter administration. […] Consecutive tissue sections front four groups, including the control, cisplatin, G2NH2, and DCPN groups were examined histologically by hematoxylin and eosin (H&E) staining at the end point, and the slides were evaluated by an independent pathologist (FIG. 16). […]

[2] = system: subcutaneous breast cancer xenograft; test: Tumor suppression after IT injection; format: in vivo, Balb/c nude mice; conditions: IT injection once a week for 3 weeks, vs PBS and G2NH2
Description: (§1) Seven-week-old female Balb/c nude mice (16-20 g) were kept on a 12-h light/12-h dark cycle at 24±2° C. and 50±10% relative humidity, with free access to water and food. They were subcutaneously injected with […] cells/mouse to establish a breast tumor model. Tumors were measured by a digital Vernier caliper across each tumor's longest (a) and shortest (b) diameter, and tumor volume (V) was calculated by the formula V=0.5a×b^2. When the tumor size reached approximately 60 mm^3 and 150 mm^3, CPN and DCPN were administered by IT and IV injection, respectively. The stud of comparative efficiency in tumor suppression was performed. The mice were treated with CPN via IT injections once a week for a total of 3 weeks. Similarity. DCPN was administered to mice via IV once a week for 4 weeks. The injection volume was 5 μL/g body weight and the tumor size was calculated every 2 to 3 days. After the mice were sacrificed, tumors and blood were collected and placed in EDTA glass tubes.

[3] = system: subcutaneous breast cancer xenograft; test: TUNEL assay of tumor tissue; format: in vivo, Balb/c nude mice; conditions: after treatment for 48 hours
Source text: Terminal dexoxynucleotidyl […]-mediated dUTP nick end labeling (TUNEL) assay was used for in situ detection of apoptotic cell death. The frozen sections of tumor tissue (4 μm thick) were warmed up to room temperature. The slides were washed 3 times with PBS to remove OCT (one of tumor's embedded medium for frozen tissues). The labeling procedures followed the standard protocol of this kit. These slides were stained with 3,3'-diaminobenzidne (DAB, Thermo, S21024-2), then counterstained with hematoxylin and mounted onto glass coverslisps before monitoring by light microscopy.

[4] = system: subcutaneous breast cancer xenograft; test: Active caspase-3 immunohistochemistry of tumor tissue; format: in vivo, Balb/c nude mice
Description: The frozen sections of tumor tissue (4 μm thick) were warm up to room temperature washed 3 times with PBS (5 min/time), and fixed with freshly prepared 4% paraformaldehyde in PBS for 15 minutes. The fixed sections were immersed in a polyclonal rabbit anti-mouse active caspase-3 antibody (Abeam Inc., ab2302, 5 μg/mL in 10% BSA of PBS, 50 μL/sample) at 4° C. for overnight, followed by washing with PBS (three times, 15 min/time) and incubating with peroxidase-conjugated polyclonal goat anti-rabbit antibodies (Abeam Inc., ab6721-200, 1:500 (v/v) in PBS, 100 μL/sample) at room temperature for 2 hours. These slides were first stained with DAB, subsequently counterstained with hematoxylin, and mounted with glass coverslisps before monitoring by light microscopy.

[5] = system: subcutaneous xenograft of breast cancer; test: Tumor suppression after IV injection with iRGD co-administration; format: in vivo, Balb/c nude mice; conditions: IV 16.6 μmol/kg at 7-day intervals, 4 weeks, iRGD co-administered, vs PBS and G2NH2
Description: as §1
The therapeutic efficacy of CPN using subcutaneous breast cancer xenograft in mice was evaluated by intratumoral (IT) injection. […] Consecutive tissue sections front four groups, including the control, cisplatin, G2NH2, and DCPN groups were examined histologically by hematoxylin and eosin (H&E) staining at the end point, and the slides were evaluated by an independent pathologist (FIG. 16). […]

Row | SMILES | IC50 (MDA-MB-231) [µg/mL] | ROS production (MDA-MB-231 cell line) | maximal tolerated dose (MTD) [1] [µmol/kg] | tumor suppression [2] | TUNEL staining (broken DNA strands) [3] | apoptosis by active caspase-3 immunostaining [4] | tumor growth / tumor volume [5]
1 | N.N.O=C([O-])C1(C(=O)[O-])CCC1.[Pt+2] [carboplatin] | 35 |  |  |  |  |  | 
2 | N.N.[Cl][Pt][Cl] [cisplatin] | 7 | no significant ROS increase or decrease | 16.6 | notably efficacious in tumor suppression | TUNEL-positive staining | can indeed cause apoptosis | can indeed cause tumors to shrink
